Test results reported in PubChem BioAssay (NCI).
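Cells were grown in 96-well plates and exposed to each compound for 48 hours at five concentrations; endpoints were interpolated linearly between bracketing concentrations, or set to the highest concentration if not reached. TGI is the concentration that stops growth completely.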

Assays:
Test in all cases: NCI-60 cell line screen, 48 h
EKVX NSCLC = test system: EKVX NSCLC
SF-268 CNS = test system: SF-268 CNS
A549 NSCLC = test system: A549 NSCLC
SNB-19 CNS = test system: SNB-19 CNS
K-562 leukemia = test system: K-562 leukemia
SW-620 colon = test system: SW-620 colon
UO-31 renal = test system: UO-31 renal
A498 renal = test system: A498 renal
CAKI-1 renal = test system: CAKI-1 renal
KM12 colon = test system: KM12 colon
COLO 205 colon = test system: COLO 205 colon
OVCAR-5 ovarian = test system: OVCAR-5 ovarian
ACHN renal = test system: ACHN renal
UACC-257 melanoma = test system: UACC-257 melanoma
MDA-MB-231 breast = test system: MDA-MB-231 breast
DU-145 prostate = test system: DU-145 prostate
MALME-3M melanoma = test system: MALME-3M melanoma
SF-539 CNS = test system: SF-539 CNS
NCI/ADR-RES ovarian = test system: NCI/ADR-RES ovarian
SK-MEL-28 melanoma = test system: SK-MEL-28 melanoma
NCI-H23 lung = test system: NCI-H23 lung
RPMI-8226 leukemia = test system: RPMI-8226 leukemia
OVCAR-4 ovarian = test system: OVCAR-4 ovarian
HCC-2998 colon = test system: HCC-2998 colon
CCRF-CEM leukemia = test system: CCRF-CEM leukemia
OVCAR-3 ovarian = test system: OVCAR-3 ovarian
OVCAR-8 ovarian = test system: OVCAR-8 ovarian
PC-3 prostate = test system: PC-3 prostate
HOP-92 NSCLC = test system: HOP-92 NSCLC
HCT-116 colon = test system: HCT-116 colon
MDA-N = test system: MDA-N
IGROV1 ovarian = test system: IGROV1 ovarian
SK-OV-3 ovarian = test system: SK-OV-3 ovarian
LOX IMVI melanoma = test system: LOX IMVI melanoma
SF-295 CNS = test system: SF-295 CNS
HOP-62 NSCLC = test system: HOP-62 NSCLC
NCI-H460 lung = test system: NCI-H460 lung
SN12C renal = test system: SN12C renal
SK-MEL-5 melanoma = test system: SK-MEL-5 melanoma
MOLT-4 leukemia = test system: MOLT-4 leukemia
HL-60(TB) leukemia = test system: HL-60(TB) leukemia
MCF7 breast = test system: MCF7 breast
786-0 renal = test system: 786-0 renal
TK-10 renal = test system: TK-10 renal
HCT-15 colon = test system: HCT-15 colon
T-47D breast = test system: T-47D breast
SR leukemia = test system: SR leukemia
SNB-75 CNS = test system: SNB-75 CNS
SK-MEL-2 melanoma = test system: SK-MEL-2 melanoma
U251 CNS = test system: U251 CNS
HS 578T breast = test system: HS 578T breast
BT-549 breast = test system: BT-549 breast
UACC-62 melanoma = test system: UACC-62 melanoma
RXF 393 renal = test system: RXF 393 renal
NCI-H522 lung = test system: NCI-H522 lung
HT29 colon = test system: HT29 colon
NCI-H226 lung = test system: NCI-H226 lung
MDA-MB-435 = test system: MDA-MB-435
M14 melanoma = test system: M14 melanoma

Measured: TGI

CC1CN=C(Nc2ccc(F)cc2F)S1 (stereo not given)
> 100 µM: EKVX NSCLC | SF-268 CNS | A549 NSCLC | SNB-19 CNS | K-562 leukemia | SW-620 colon | UO-31 renal | A498 renal | CAKI-1 renal | KM12 colon | COLO 205 colon | OVCAR-5 ovarian | ACHN renal | UACC-257 melanoma | MDA-MB-231 breast | DU-145 prostate | MALME-3M melanoma | SF-539 CNS | NCI/ADR-RES ovarian | SK-MEL-28 melanoma | NCI-H23 lung | RPMI-8226 leukemia | OVCAR-4 ovarian | HCC-2998 colon | CCRF-CEM leukemia | OVCAR-3 ovarian | OVCAR-8 ovarian | PC-3 prostate | HOP-92 NSCLC | HCT-116 colon | MDA-N | IGROV1 ovarian | SK-OV-3 ovarian | LOX IMVI melanoma | SF-295 CNS | HOP-62 NSCLC | NCI-H460 lung | SN12C renal | SK-MEL-5 melanoma | MOLT-4 leukemia | HL-60(TB) leukemia | MCF7 breast | 786-0 renal | TK-10 renal | HCT-15 colon | T-47D breast | SR leukemia | SNB-75 CNS | SK-MEL-2 melanoma | U251 CNS | HS 578T breast

Cc1ccc(Cl)c2c(=O)c3ccc([N+](=O)[O-])cc3sc12
> 100 µM: A549 NSCLC | SNB-19 CNS | K-562 leukemia | UO-31 renal | CAKI-1 renal | KM12 colon | COLO 205 colon | OVCAR-5 ovarian | ACHN renal | UACC-257 melanoma | DU-145 prostate | NCI-H23 lung | RPMI-8226 leukemia | OVCAR-3 ovarian | OVCAR-8 ovarian | PC-3 prostate | HCT-116 colon | MDA-N | SF-295 CNS | HOP-62 NSCLC | SK-MEL-5 melanoma | MOLT-4 leukemia | MCF7 breast | 786-0 renal | BT-549 breast | HCT-15 colon | SK-MEL-2 melanoma | UACC-62 melanoma

N#Cc1ccc(Oc2nc3ccccc3nc2-c2ccccc2)cc1
> 100 µM: EKVX NSCLC | SF-268 CNS | SNB-19 CNS | K-562 leukemia | SW-620 colon | UO-31 renal | A498 renal | CAKI-1 renal | KM12 colon | COLO 205 colon | OVCAR-5 ovarian | ACHN renal | UACC-257 melanoma | MDA-MB-231 breast | DU-145 prostate | MALME-3M melanoma | SK-MEL-28 melanoma | NCI-H23 lung | RPMI-8226 leukemia | OVCAR-4 ovarian | RXF 393 renal | HCC-2998 colon | CCRF-CEM leukemia | OVCAR-3 ovarian | PC-3 prostate | NCI-H522 lung | HOP-92 NSCLC | HCT-116 colon | MDA-N | IGROV1 ovarian | SK-OV-3 ovarian | LOX IMVI melanoma | SF-295 CNS | HOP-62 NSCLC | HT29 colon | NCI-H460 lung | SN12C renal | SK-MEL-5 melanoma | MOLT-4 leukemia | HL-60(TB) leukemia | MCF7 breast | 786-0 renal | NCI-H226 lung | BT-549 breast | TK-10 renal | HCT-15 colon | MDA-MB-435 | SK-MEL-2 melanoma | U251 CNS | UACC-62 melanoma | HS 578T breast

COc1ccc2cc(C(C)C(O)c3cc(F)c(F)c(F)c3F)ccc2c1 (stereo not given)
> 100 µM: EKVX NSCLC | SF-268 CNS | A549 NSCLC | SNB-19 CNS | K-562 leukemia | SW-620 colon | UO-31 renal | A498 renal | COLO 205 colon | OVCAR-5 ovarian | ACHN renal | UACC-257 melanoma | MDA-MB-231 breast | DU-145 prostate | MALME-3M melanoma | NCI/ADR-RES ovarian | SK-MEL-28 melanoma | NCI-H23 lung | RPMI-8226 leukemia | OVCAR-4 ovarian | HCC-2998 colon | CCRF-CEM leukemia | OVCAR-3 ovarian | OVCAR-8 ovarian | PC-3 prostate | HOP-92 NSCLC | HCT-116 colon | MDA-N | M14 melanoma | IGROV1 ovarian | SK-OV-3 ovarian | LOX IMVI melanoma | SF-295 CNS | HOP-62 NSCLC | HT29 colon | NCI-H460 lung | SN12C renal | SK-MEL-5 melanoma | HL-60(TB) leukemia | MCF7 breast | 786-0 renal | NCI-H226 lung | BT-549 breast | TK-10 renal | HCT-15 colon | T-47D breast | MDA-MB-435 | U251 CNS | UACC-62 melanoma
43.6 µM: SNB-75 CNS
